This assay deals with P388 leukemia ip, CD2F1 mice, survival T/C. Nature of the assay: NCI In Vivo Anticancer Drug Screen. Data for tumor model P388 Leukemia (intraperitoneal) in CD2F1 (CDF1) mice. The conditions noted are these: endpoint: median survival time, higher = longer survival. Summed up:
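Mice carrying the transplanted tumor received test compound or vehicle. Survival was recorded in each group, and the value is the treated-group measurement divided by that of the vehicle-treated control group.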

[1] abbreviates: dose: 25.0 mg/kg/injection, schedule: Q01DX009 (ip), vehicle: saline with Tween-80.
Where [2] appears, read: dose: 50.0 mg/kg/injection, schedule: Q01DX009 (ip), vehicle: saline with Tween-80.
[3] abbreviates: dose: 100.0 mg/kg/injection, schedule: Q01DX009 (ip), vehicle: saline with Tween-80.
The mark [4] stands for this setting: dose: 200.0 mg/kg/injection, schedule: Q01DX009 (ip), vehicle: saline with Tween-80.
The mark [5] stands for this setting: dose: 50.0 mg/kg/injection, schedule: Q01DX009 (ip), vehicle: saline.
The mark [6] stands for this setting: dose: 100.0 mg/kg/injection, schedule: Q01DX009 (ip), vehicle: saline.
Setting [7] is: dose: 200.0 mg/kg/injection, schedule: Q01DX009 (ip), vehicle: saline.
[8] abbreviates: dose: 50.0 mg/kg/injection, schedule: Q01DX005 (ip), vehicle: saline with Tween-80.
Setting [9] is: dose: 100.0 mg/kg/injection, schedule: Q01DX005 (ip), vehicle: saline with Tween-80.
[10] abbreviates: dose: 200.0 mg/kg/injection, schedule: Q01DX005 (ip), vehicle: saline with Tween-80.

Consider 22 molecules from PubChem BioAssay AID330 (DTP/NCI, 2004).

Values joined by “and” are separate entries in the source; they are usually repeats but may differ in a detail not shown here. Identical values can stand only once. Inconclusive results and toxic doses are left out.

As to `C=CCOc1ccccc1/C(Cl)=N/Nc1ccc([N+](=O)[O-])cc1[N+](=O)[O-]`, the T/C by setting is: (dose: 100.0 mg/kg/injection, schedule: Q04DX003 (ip), vehicle: saline with Tween-80) 97 % of control; (dose: 200.0 mg/kg/injection, schedule: Q04DX003 (ip), vehicle: saline with Tween-80) 94 % of control; (dose: 400.0 mg/kg/injection, schedule: Q04DX003 (ip), vehicle: saline with Tween-80) 89 % of control.
For `CCOC(=O)C1(Br)CCCCC1Br` (stereo not drawn), the T/C reads like this: under setting [1], 108 % of control and 111 % of control; under setting [2], 115 % of control and 118 % of control; under setting [3], 113 % of control and 118 % of control and 119 % of control.
With `O=C(CC1NCCCC1O)Cn1cnc2ccccc2c1=O` (stereo not drawn), the T/C (dose: 1.0 mg/kg/injection, schedule: Q01DX009 (ip), vehicle: distilled water + alcohol) is 116 % of control; the T/C (dose: 2.0 mg/kg/injection, schedule: Q01DX009 (ip), vehicle: distilled water + alcohol) was 107 % of control; the T/C (dose: 4.0 mg/kg/injection, schedule: Q01DX009 (ip), vehicle: distilled water + alcohol) was 107 % of control.
Regarding `[N-]=[N+]=NC1=CC(=O)C(c2ccccc2)=CC1=O`, the T/C reads like this: under setting [1], 100 % of control; under setting [2], 95 % of control; under setting [4], 103 % of control.
Consider `CC1C(C#N)C(=O)NC(=O)C1C#N` (stereo not drawn), for which the T/C under setting [5] is 99 % of control, the T/C under setting [6] was 100 % of control and the T/C under setting [7] was 100 % of control.
With `CC(C)CNc1ccc(S(=O)(=O)c2ccc(NCC(C)C)c([N+](=O)[O-])c2)cc1[N+](=O)[O-]`, the T/C is, setting by setting: (dose: 6.25 mg/kg/injection, schedule: Q01DX009 (ip), vehicle: saline with Tween-80) 98 % of control; (dose: 12.5 mg/kg/injection, schedule: Q01DX009 (ip), vehicle: saline with Tween-80) 92 % of control; under setting [1], 87 % of control; under setting [2], 93 % of control.
On to `c1cc[c]([Pb]([S]c2nc3ccccc3[nH]2)([c]2ccccc2)[c]2ccccc2)cc1`, for which the T/C is 102 % of control (dose: 0.37 mg/kg/injection, schedule: Q01DX009 (ip), vehicle: Klucel (hydroxypropylcellulose) (HPC)); 121 % of control (dose: 0.75 mg/kg/injection, schedule: Q01DX009 (ip), vehicle: Klucel (hydroxypropylcellulose) (HPC)); 102 % of control (dose: 1.5 mg/kg/injection, schedule: Q01DX009 (ip), vehicle: Klucel (hydroxypropylcellulose) (HPC)); 100 % of control (dose: 3.0 mg/kg/injection, schedule: Q01DX009 (ip), vehicle: Klucel (hydroxypropylcellulose) (HPC)).
With `CC1(C)COC2(CC3(C)CC(=O)CC3(C)C2)OC1` (stereo not drawn), the T/C runs as follows: under setting [2], 105 % of control; under setting [3], 90 % of control; under setting [4], 102 % of control.
Consider `COC(=O)c1cc(=O)n(-c2ccccc2C(F)(F)F)c(SC)n1`, for which the T/C runs as follows: (dose: 50.0 mg/kg/injection, schedule: Q04DX003 (ip), vehicle: Klucel (hydroxypropylcellulose) (HPC)) 95 % of control and 97 % of control; (dose: 100.0 mg/kg/injection, schedule: Q04DX003 (ip), vehicle: Klucel (hydroxypropylcellulose) (HPC)) 99 % of control and 100 % of control; (dose: 200.0 mg/kg/injection, schedule: Q04DX003 (ip), vehicle: Klucel (hydroxypropylcellulose) (HPC)) 104 % of control and 111 % of control; (dose: 400.0 mg/kg/injection, schedule: Q04DX003 (ip), vehicle: Klucel (hydroxypropylcellulose) (HPC)) 110 % of control.
For `N#CC(C#N)=C1Sc2nc3ccc([N+](=O)[O-])cc3nc2S1`, the T/C is 109 % of control under setting [5], 90 % of control under setting [6] and 118 % of control under setting [7].
`CC(Cl)C(=O)c1ccc(N)cc1` (stereo not drawn): the T/C was 99 % of control (dose: 50.0 mg/kg/injection, schedule: Q01DX009 (ip), vehicle: Klucel (hydroxypropylcellulose) (HPC)); 99 % of control (dose: 100.0 mg/kg/injection, schedule: Q01DX009 (ip), vehicle: Klucel (hydroxypropylcellulose) (HPC)); 99 % of control (dose: 200.0 mg/kg/injection, schedule: Q01DX009 (ip), vehicle: Klucel (hydroxypropylcellulose) (HPC)).
With `CC(=O)CCNc1ccc(O)c2c1C(=O)c1ccccc1C2=O`, the T/C (dose: 25.0 mg/kg/injection, schedule: Q04DX002 (ip), vehicle: saline with Tween-80) was 100 % of control; the T/C (dose: 50.0 mg/kg/injection, schedule: Q04DX002 (ip), vehicle: saline with Tween-80) was 101 % of control; the T/C (dose: 100.0 mg/kg/injection, schedule: Q04DX002 (ip), vehicle: saline with Tween-80) was 94 % of control; the T/C (dose: 200.0 mg/kg/injection, schedule: Q04DX002 (ip), vehicle: saline with Tween-80) was 100 % of control.
For the molecule `N#Cc1c(N)sc(=S)c2c1CCCC2`, the T/C is, setting by setting: under setting [5], 104 % of control; under setting [6], 95 % of control; under setting [7], 95 % of control.
In the case of `COc1c(O)c(O)cc2c1-c1ccc(OC)c(=O)cc1C(NC(C)=O)CC2` (stereo not drawn), the T/C (dose: 1.25 mg/kg/injection, schedule: Q01DX009 (ip), vehicle: water) is 114 % of control; the T/C (dose: 2.5 mg/kg/injection, schedule: Q01DX009 (ip), vehicle: water) was 117 % of control; the T/C (dose: 20.0 mg/kg/injection, schedule: Q01DX009 (ip), vehicle: water) was 166 % of control and 177 % of control; the T/C (dose: 40.0 mg/kg/injection, schedule: Q01DX009 (ip), vehicle: water) was 204 % of control.
Regarding `O=C(O)C(Cc1ccccc1)Nc1ncnc2nc[nH]c12` (stereo not drawn), the T/C by setting is: (dose: 50.0 mg/kg/injection, schedule: Q01DX005 (ip), vehicle: Klucel (hydroxypropylcellulose) (HPC)) 93 % of control; (dose: 100.0 mg/kg/injection, schedule: Q01DX005 (ip), vehicle: Klucel (hydroxypropylcellulose) (HPC)) 100 % of control; (dose: 200.0 mg/kg/injection, schedule: Q01DX005 (ip), vehicle: Klucel (hydroxypropylcellulose) (HPC)) 100 % of control.
For `O=C(Nc1ccccc1-c1ccccc1)c1ccc2c(c1)OCO2`, the T/C runs as follows: under setting [8], 97 % of control; under setting [9], 111 % of control; under setting [10], 97 % of control.
On to `C/C(=N\O)c1ccc2c3c(ccc([N+](=O)[O-])c13)CC2`, for which the T/C runs as follows: (dose: 6.25 mg/kg/injection, schedule: Q01DX009 (ip), vehicle: suspension in saline) 97 % of control; (dose: 12.5 mg/kg/injection, schedule: Q01DX009 (ip), vehicle: suspension in saline) 98 % of control; (dose: 25.0 mg/kg/injection, schedule: Q01DX009 (ip), vehicle: suspension in saline) 97 % of control; (dose: 50.0 mg/kg/injection, schedule: Q01DX009 (ip), vehicle: suspension in saline) 96 % of control.
Take `O=C1C=CC(=O)N1C(=O)NC(NC(=O)N1C(=O)C=CC1=O)c1cccc2ccccc12`: the T/C was 100 % of control under setting [8], 99 % of control under setting [9] and 90 % of control under setting [10].
As for `ClC1=C(Cl)C2(Cl)C3C4CC(C5OC45)C3N1C2(Cl)Cl` (stereo not drawn), the T/C is 109 % of control (dose: 100.0 mg/kg/injection, schedule: Q01DX001 (ip), vehicle: saline with Tween-80) and 103 % of control (dose: 200.0 mg/kg/injection, schedule: Q01DX001 (ip), vehicle: saline with Tween-80).
Turning to `CCCCc1c[nH]n(C(N)=NCCSCc2nc[nH]c2C)c1=O`, the T/C is 94 % of control (dose: 60.0 mg/kg/injection, schedule: Q01DX005 (ip), vehicle: Klucel (hydroxypropylcellulose) (HPC)); 98 % of control (dose: 120.0 mg/kg/injection, schedule: Q01DX005 (ip), vehicle: Klucel (hydroxypropylcellulose) (HPC)); 93 % of control (dose: 240.0 mg/kg/injection, schedule: Q01DX005 (ip), vehicle: Klucel (hydroxypropylcellulose) (HPC)).
Consider `COC(=O)C1=C/CCCN(C(c2ccccc2)c2ccccc2)/C=C\1C(=O)OC`, for which the T/C reads like this: (dose: 100.0 mg/kg/injection, schedule: Q01DX001 (ip), vehicle: saline) 99 % of control; (dose: 200.0 mg/kg/injection, schedule: Q01DX001 (ip), vehicle: saline) 91 % of control; (dose: 400.0 mg/kg/injection, schedule: Q01DX001 (ip), vehicle: saline) 95 % of control.
On to `CN(C)Cc1ccc(C(C)(C)C)cc1Br`, for which the T/C runs as follows: (dose: 12.5 mg/kg/injection, schedule: Q01DX009 (ip), vehicle: water) 97 % of control; (dose: 25.0 mg/kg/injection, schedule: Q01DX009 (ip), vehicle: water) 95 % of control; (dose: 50.0 mg/kg/injection, schedule: Q01DX009 (ip), vehicle: water) 99 % of control; (dose: 100.0 mg/kg/injection, schedule: Q01DX009 (ip), vehicle: water) 95 % of control; (dose: 200.0 mg/kg/injection, schedule: Q01DX009 (ip), vehicle: water) 89 % of control.
